Values quoted from earlier work as cited in US20200129574A1 (priority 2018, published 2020).

Columns and labels:
[1] = tested on: several tumor cell types, including prostate cancer cell lines, and primary prostate tumor lines; conditions: several tumor cell types incl. prostate cancer cell lines and primary prostate tumor lines
[2] = tested on: prostate cancer cells; conditions: in vitro
[3] = tested on: a6 and 134 integrins

Vitamin D
effect on proliferation and differentiation of tumor cells [1]: inhibit proliferation and promote differentiation
effect on invasion of prostate cancer cells [2]: decrease invasion
expression of a6 and 134 integrins [3]: decreased expression
